In patent US20090062243A1, “Lupane-Type Triterpenoids Modified at 30-Position and Analogues Thereof” (ADVANCED LIFE SCIENCES, INC., priority 2007, published 2009):

What was measured:
LN-229 (glioblastoma) = assay: MTS cell viability assay, LN-229; format: cell-based
Protocol: (§1) Cells were plated, the evening before treatment, for each treatment on 96-well plates (1×10^4 cells/well) in 100 μL volume per well. Analog solutions were prepared by diluting each test compound in DSMO (10 mM) with the appropriate cell growth media for each individual cell line, or in “Universal Media” if several cell lines were to be assayed in parallel, immediately prior to cell treatment. Universal Media consisted of 5 mL sodium pyruvate (100× liquid stock, MediaTech), 5 mL glucose (100×, 45% liquid stock, MediaTech), 5 mL Penicillin/Streptomycin (100× liquid stock, MediaTech), 10 mL sodium bicarbonate (50× liquid stock, MediaTech), 25 mL Fetal Calf Serum, 1.25 mL insulin (4 mg/mL, Gibco) and […] RPMI media with 2 mM L-glutamine for a total volume of 500 mL.
(§2) Cells were treated by aspirating plating media from each well and adding 80 μL of betulinic acid (control) or each analog solution in serial dilutions to the adherent cells. All treatments were performed in triplicate. Growth media (80 μL) was added to 3 blank wells (no cells) to measure background from the growth media. Growth media alone (no DMSO or test compound) was added to 3 wells containing cells to measure the baseline MTS activity. Vehicle (DMSO) control in serial dilutions, added to cells, was also included to monitor basal toxicity from DMSO. Cells were incubated at 37° C. for 72 h, or 120 h for the OVCAR cell lines. MTS reagent (per 96-well plate) were prepared by combining 2 mL of MTS working solution (Cell Titer AQueous Non-Radioactive Cell Proliferation Assay, Promega, cat#G1112), 100 μL of 0.92 mg/mL phenazine methosulfate/Dulbecco's PBS and 2.1 mL growth media. MTS reagent (40 μL) were added to each well and incubated at 37° C. for 1.5 to 4 h. Plates were gently shaken by hand until solution in each well appeared homogenous. Absorbances at 490 nm were measured on a Wallac Victor II plate reader at multiple time points following the addition of MTS reagent for each plate. Triplicate absorbance (490 nm) measurements were averaged following background (no cell) subtraction for each drug concentration. Percent Cell Viability was calculated for each drug concentration using the following equation:
(§3) {[Absorbance(analog treated)]/[Absorbance(DMSO treated)]}×100%
(§4) Cytotoxicity dose response for the triterpenoid derivatives synthesized in SK-MEL-2 (melanoma), A-375 (melanoma), Daoy (glioblastoma), LN-229 (glioblastoma), OVCAR-3 (ovarian carcinoma), HT-29 (colon carcinoma), MCF-7 (breast carcinoma) cell lines using the standard MTS assay is summarized in Table 1. In Table 1, compounds 22a-d and compounds 23a-c refer to structures 22 and 23 in Scheme 5, respectively. Compounds 24aa-an and 24ba-bq refer to structure 24 in Scheme 6. Compounds 26a-e refer to structure 26 in Scheme 6. Compounds 36a-c refer to structure 36 in Scheme 10.

A-375 (melanoma) = assay: MTS cell viability assay, A-375; format: cell-based
Protocol: as §1, §2, §3, §4

H-146 = assay: MTS cell viability assay, H-146; format: cell-based
Protocol: as §1, §2, §3

[1] = system: OVCAR-3 (ovarian carcinoma); assay: MTS cell viability assay, OVCAR-3; format: cell-based
Protocol: as §1, §2, §3, §4

Daoy = assay: MTS cell viability assay, Daoy; format: cell-based; details: cells incubated 72 h
Protocol: as §1, §2, §3, §4

MCF-7 (breast carcinoma) = assay: MTS cell viability assay, MCF-7; format: cell-based
Protocol: as §1, §2, §3, §4

SK-MEL-2 (melanoma) = assay: MTS cell viability assay, SK-MEL-2; format: cell-based
Protocol: as §1, §2, §3, §4

HT-29 (colon carcinoma) = assay: MTS cell viability assay, HT-29; format: cell-based
Protocol: as §1, §2, §3, §4

CEM = assay: MTS cell viability assay, CEM; format: cell-based; details: cells incubated 72 h
Protocol: as §1, §2, §3

[2] = Homo sapiens, LN-229, cells incubated 72 h
[3] = Homo sapiens, A-375, cells incubated 72 h
[4] = Homo sapiens, NCI-H146, cells incubated 72 h
[5] = Homo sapiens, OVCAR-3, 120 h for the OVCAR cell lines
[6] = Homo sapiens, MCF7, cells incubated 72 h
[7] = Homo sapiens, SK-MEL-2, cells incubated 72 h
[8] = Homo sapiens, HT-29, cells incubated 72 h

SMILES	IC50 (LN-229 (glioblastoma); [2])	IC50 (A-375 (melanoma); [3])	IC50 (H-146; [4])	IC50 [1, 5]	IC50 (Daoy; Homo sapiens, Daoy)	IC50 (MCF-7 (breast carcinoma); [6])	IC50 (SK-MEL-2 (melanoma); [7])	IC50 (HT-29 (colon carcinoma); [8])	IC50 (CEM; Homo sapiens, CCRF-CEM)	melting point	IC50 (LN-229 (glioblastoma); cells incubated 72 h)	IC50 (A-375 (melanoma); cells incubated 72 h)	IC50 (H-146; cells incubated 72 h)	IC50 ([1]; 120 h for the OVCAR cell lines)	IC50 (Daoy)	IC50 (MCF-7 (breast carcinoma); cells incubated 72 h)	IC50 (SK-MEL-2 (melanoma); cells incubated 72 h)	IC50 (HT-29 (colon carcinoma); cells incubated 72 h)	IC50 (CEM)
C=C(CO)[C@@H]1CC[C@]2(CO)CC[C@]3(C)[C@H](CC[C@@H]4[C@@]5(C)CCC(=O)C(C)(C)[C@@H]5CC[C@]43C)[C@@H]12 [Compound 7a]	> 75 µM	40 µM	60 µM	43 µM	> 75 µM	43 µM	> 75 µM	44 µM	45 µM	–	–	–	–	–	–	–	–	–	–
C=C(CO)[C@@H]1CC[C@]2(CO)CC[C@]3(C)[C@H](CC[C@@H]4[C@@]5(C)CCC(N)C(C)(C)[C@@H]5CC[C@]43C)[C@@H]12 (some centres unmarked) [Compound 24ab]	17 µM	6 µM	–	14 µM	31 µM	15 µM	34 µM	17 µM	–	189 to 199 °C	–	–	–	–	–	–	–	–	–
C=C(C)[C@@H]1CC[C@]2(C(=O)O)CC[C@]3(C)[C@H](CC[C@@H]4[C@@]5(C)CC[C@H](O)C(C)(C)[C@@H]5CC[C@]43C)[C@@H]12 [Compound 1, betulinic acid (3β-hydroxy-lup-20(29)-en-28-oic acid), reference compound]	–	–	–	–	–	–	–	–	–	–	29 µM	22 µM	8 µM	40 µM	11 µM	30 µM	7 µM	31 µM	2 µM
C=C(CNCCO)[C@@H]1CC[C@]2(CO)CC[C@]3(C)[C@H](CC[C@@H]4[C@@]5(C)CCC(=O)C(C)(C)[C@@H]5CC[C@]43C)[C@@H]12 [Compound 22b]	16 µM	10 µM	–	67 µM	47 µM	47 µM	45 µM	45 µM	–	–	–	–	–	–	–	–	–	–	–
C=C(C=O)[C@@H]1CC[C@]2(CO)CC[C@]3(C)[C@H](CC[C@@H]4[C@@]5(C)C=CC(=O)C(C)(C)[C@@H]5CC[C@]43C)[C@@H]12 [Compound 35]	58 µM	6 µM	5 µM	6 µM	17 µM	32 µM	14 µM	8 µM	2 µM	–	–	–	–	–	–	–	–	–	–
C=C(CO)[C@@H]1CC[C@]2(CO)CC[C@]3(C)[C@H](CC[C@@H]4[C@@]5(C)CCC(NCCO)C(C)(C)[C@@H]5CC[C@]43C)[C@@H]12 (some centres unmarked) [Compound 24ad]	37 µM	16 µM	–	39 µM	29 µM	41 µM	34 µM	65 µM	–	–	–	–	–	–	–	–	–	–	–
C=C(CO)[C@@H]1CC[C@]2(CO)CC[C@]3(C)[C@H](CC[C@@H]4[C@@]5(C)CCC(NCCc6ccc(O)cc6)C(C)(C)[C@@H]5CC[C@]43C)[C@@H]12 (some centres unmarked) [Compound 24ag]	–	–	–	–	–	–	–	–	–	–	17 µM	17 µM	–	5 µM	16 µM	28 µM	12 µM	26 µM	–
C=C(CO)[C@@H]1CC[C@]2(CO)CC[C@]3(C)[C@H](CC[C@@H]4[C@@]5(C)CCC(NCCNC(=O)OC(C)(C)C)C(C)(C)[C@@H]5CC[C@]43C)[C@@H]12 (some centres unmarked) [Compound 24am]	–	–	–	–	–	–	–	–	–	–	17 µM	17 µM	–	2.5 µM	16 µM	35 µM	16 µM	> 75 µM	–
C=C(CO)[C@@H]1CC[C@]2(CO)CC[C@]3(C)[C@H](CC[C@@H]4[C@@]5(C)C=CC(=O)C(C)(C)[C@@H]5CC[C@]43C)[C@@H]12 [Compound 30]	68 µM	61 µM	66 µM	> 75 µM	> 75 µM	> 75 µM	> 75 µM	67 µM	16 µM	–	–	–	–	–	–	–	–	–	–
C=C(C=O)[C@@H]1CC[C@]2(COC3CCCCO3)CC[C@]3(C)[C@H](CC[C@@H]4[C@@]5(C)C=CC(=O)C(C)(C)[C@@H]5CC[C@]43C)[C@@H]12 (some centres unmarked) [Compound 34]	6 µM	1 µM	2 µM	2 µM	6 µM	8 µM	2 µM	2 µM	1 µM	–	–	–	–	–	–	–	–	–	–
C=C(COS(C)(=O)=O)[C@@H]1CC[C@]2(CO)CC[C@]3(C)[C@H](CC[C@@H]4[C@@]5(C)CCC(=O)C(C)(C)[C@@H]5CC[C@]43C)[C@@H]12 [Compound 21b]	46 µM	21 µM	–	> 75 µM	> 75 µM	54 µM	> 75 µM	17 µM	–	–	–	–	–	–	–	–	–	–	–
C=C(CO)[C@@H]1CC[C@]2(COC3CCCCO3)CC[C@]3(C)[C@H](CC[C@@H]4[C@@]5(C)CCC(NCCO)C(C)(C)[C@@H]5CC[C@]43C)[C@@H]12 (some centres unmarked) [Compound 24ac]	11 µM	13 µM	–	7 µM	15 µM	36 µM	15 µM	60 µM	–	–	–	–	–	–	–	–	–	–	–
C=C(C=O)[C@@H]1CC[C@]2(CO)CC[C@]3(C)[C@H](CC[C@@H]4[C@@]5(C)CCC(=O)C(C)(C)[C@@H]5CC[C@]43C)[C@@H]12 [Compound 9b]	20 µM	18 µM	–	6 µM	16 µM	56 µM	16 µM	52 µM	–	–	–	–	–	–	–	–	–	–	–
C=C(C)[C@@H]1CC[C@]2(COC3CCCCO3)CC[C@]3(C)[C@H](CC[C@@H]4[C@@]5(C)C=C(C=O)C(=O)C(C)(C)[C@@H]5CC[C@]43C)[C@@H]12 (some centres unmarked) [Compound 32]	2 µM	6 µM	–	6 µM	< 2 µM	6 µM	< 2 µM	6 µM	–	–	–	–	–	–	–	–	–	–	–
C=C(CO)[C@@H]1CC[C@]2(COC3CCCCO3)CC[C@]3(C)[C@H](CC[C@@H]4[C@@]5(C)CCC(N)C(C)(C)[C@@H]5CC[C@]43C)[C@@H]12 (some centres unmarked) [Compound 24aa]	4 µM	0.89 µM	–	15 µM	4 µM	6 µM	5 µM	12 µM	–	–	–	–	–	–	–	–	–	–	–
